The source of these data is patent publication US10981854B2 (SYMRISE AG, priority 2016, dated 2021).

For data set [1], the system named is Pseudomonas aeruginosa. Conditions: when used in cosmetics; Daily Chemical Industry 2015, 45:269; cited from earlier work.
Data set [2] deals with Aspergillus brasiliensis. Conditions: when used in cosmetics; Daily Chemical Industry 2015, 45:269; cited from earlier work.
Data set [3] can be described thus: General properties: behaviour when put into water. Type of data set: physicochemical. The note with it: solid put into water in a beaker.
Data set [4] in a line: Solubility test e): 4-HAP + 5 wt. % 1,2-pentanediol (Hydrolite 5) in cold water. It is filed as physicochemical. The note with it: for dissolution result: after ca. 50 min.
Data set [5] in a line: Solubility test d): 4-HAP + 3 wt. % 1,2-pentanediol (Hydrolite 5) + 5 wt. % glycerin in warm water. It is filed as physicochemical. The note with it: for dissolution result: heating up to 50° C. and cooling down while stirring; for crystals on storage: stored at 5° C. and room temperature, after 24 h.
The nature of data set [6]: Solubility test c): 4-HAP + 3 wt. % 1,2-pentanediol (Hydrolite 5) + 5 wt. % glycerin in cold water. It is filed as physicochemical.
Setting [7] is: 0.5 wt. % 4-HAP + 5 wt. % 1,2-pentanediol.
Setting [8] is: 1 wt. % 4-HAP + 5 wt. % 1,2-pentanediol.
[9] abbreviates: 0.5 wt. % 4-HAP + 3 wt. % 1,2-pentanediol + 5 wt. % glycerin.
Setting [10] is: 1 wt. % 4-HAP + 3 wt. % 1,2-pentanediol + 5 wt. % glycerin.

SMILES strings stand for the structures.

With `CC(=O)c1ccc(O)cc1` [4-hydroxyacetophenone], in data set [1], the “ability to restrain Pseudomonas aeruginosa” value is on record as “certain ability to restrain”. The “ability to kill Aspergillus brasiliensis” value in data set [2] is listed as “great ability to kill”.
As for `CC(=O)c1ccc(O)cc1` [Example 3, 4-hydroxyacetophenone], the “behaviour when put into water” value in data set [3] is “distributes on the surface and slowly falls to the ground of the beaker”. Further, the “time until solved completely” value in data set [4] (setting [7]), in data set [4] (setting [8]), in data set [6] (setting [9]) and in data set [6] (setting [10]) was “ca. 50 min” throughout. The crystallization/precipitation on storage result in data set [4] (0.5 wt. % 4-HAP + 5 wt. % 1,2-pentanediol, after 24 h of storage) is “no crystallization/precipitation”; in data set [6] (1 wt. % 4-HAP + 3 wt. % 1,2-pentanediol + 5 wt. % glycerin, after 24 h of storage), “no crystallization/precipitation”. Further, the “storage time after which crystallization” value in data set [4] (1 wt. % 4-HAP + 5 wt. % 1,2-pentanediol, stored at 5° C.) was determined as 24 h. For the same compound, the dissolution result in data set [5] (setting [9]) and in data set [5] (setting [10]) was “solved completely” in each case. In addition, the crystals on storage result in data set [5] (setting [9]) and in data set [5] (setting [10]) was “no crystals” in each case. Further, the “storage time after which crystallization/precipitation” value in data set [6] (setting [9]) was found to be 48 h.
Take `CC(=O)c1ccc(O)cc1` [Example 4, 4-hydroxyacetophenone]: in data set [3], the “behaviour when put into water” value was “agglomerates and sinks to the ground”. In addition, the dissolution result is recorded as “a few little lumps of solid left undissolved” in data set [4] (setting [7]); “lumps of solid left undissolved” in data set [4] (setting [8]); “solved completely” in data set [5] (setting [9]); “solved completely” in data set [5] (setting [10]); “a few lumps of solid left undissolved” in data set [6] (1 wt. % 4-HAP + 3 wt. % 1,2-pentanediol + 5 wt. % glycerin, after stirring for 60 min). The crystals on storage result in data set [5] (setting [9]) and in data set [5] (setting [10]) was “no crystals” in each case. Further, the “storage time after which crystallization/precipitation” value in data set [6] (setting [9]) amounted to 48 h. In addition, the “time until solved completely” value in data set [6] (setting [9]) is given as “ca. 50 min”.
